Patent US6930203B2, “Gelling agents or thickeners” (Applied NanoSystems B.V., priority 2001, dated 2005)

Key:
Type in all cases: physicochemical
[1] = Solvent scope of N,N′-dialkylaldaramides (1%) or N,N′-dialkylpentaramides (1%): gelation/solubility behaviour in solvents; parameters: key: g = gelation; s = soluble; p = precipitates; c = crystallizes; ns = not soluble; v = viscous; g* = unstable gel, precipitates; cg = crystalline gel; conditions: 1% gelling agent
Text: It will be understood that the use of the present gelling agents or thickeners to prepare a gel or to thicken a composition is also encompassed by the invention. As is well known, gelling behavior of compounds or compositions is highly unpredictable. […] Preferably, the gelling phenomenon is thermo reversible.
(§1) Preferred examples include aromatic and nonaromatic hydrocarbons, alcohols, ethers, esters, aldehydes, alkanoic acids, epoxides, amines, halogenated hydrocarbons, silicon oils, vegetable oils, phosphoric esters, sulfoxides, water and mixtures thereof. In order to obtain a gel, the gelling agent or thickener is preferably mixed with the composition to be transformed to a gel in an amount of between 0.01 and 50 wt. %, based on the weight of the composition. In a preferred embodiment, the mixture of the gelling agent or thickener and the composition is heated to allow for an even better gel formation or thickening. Typically, the heating will involve raising the temperature of the mixture to about 30-175° C. until a clear solution is obtained. In an alternative embodiment, the gelling agent is first dissolved in a polar or apolar solvent and then added to or sprayed into a composition or solvent to be converted into a gel.
Solvent scope of N,N′-dialkylaldaramides (1%) or N,N′-dialkylpentaramides (1%) 1-24 refers to the compounds prepared in Examples 1-23)

[2] = Gelation of N,N′-dialkyladaramides (1%) in mixtures of solvents; parameters: key: g = gelation; s = soluble; p = precipitates; c = crystallizes; ns = not soluble; v = viscous; g* = unstable gel, precipitates; cg = crystalline gel; conditions: 1% gelling agent
Text: as §1
Gelation of N,N′-dialkyladaramides (1%) in Mixtures of Solvents

[3] = Solubility in several solvents tested (for NMR)
Description: Synthesis of didodecyl galactaramide. Diethyl galacterate (2.66 g, 10.0 mmol) was added to a solution of dodecylamine (3.75 g, 20.5 mmol) in EtOH (50 ml). After 72 hours stirring, the precipitate was filtered (yield 4.87 g, 8.9 mmol, 89%).
Synthesis of dicyclododecyl galactaramide. Diethyl galacterate (2.67 15 g, 10.0 mmol) was added to a solution of cyclododecylamine (3.78 g, 20.7 mmol) in EtOH (50 ml). After 48 hours stirring, the precipitate was filtered and washed with H2O and EtOH (yield 2.43 g, 4.5 mmol, 45%).

[4] = Cold gelation: addition of a solution of the gelling agent (10% in NMP, 0.05 ml) to an organic solution (0.5 ml); parameters: key: g = gelation; s = soluble; p = precipitates; c = crystallizes; ns = not soluble; v = viscous; g* = unstable gel, precipitates; cg = crystalline gel; conditions: for Cold gelation in 1,2-dichloroethane: 0.05 ml added to 0.5 ml 1,2-dichloroethane; for Cold gelation in Toluene: 0.05 ml added to 0.5 ml Toluene; for Cold gelation in cyclohexane: 0.05 ml added to 0.5 ml cyclohexane; for Cold gelation in methyl laurate: 0.05 ml added to 0.5 ml methyl laurate; for Cold gelation in n-butyl acetate: 0.05 ml added to 0.5 ml n-butyl acetate
Text: as §1
Addition of a solution of the gelling agent (10% in NMP, 0.05 ml) to an organic solution (0.5 ml, “cold gelation”)

[5] = Maximum gelator concentration
Text: Maximum gelator concentration of 5 (C6-Glu-C6) and 15 (C12-Glu-C12)

| Compound | Gelation/solubility behaviour in 1,2-dichloroethane [1] | Gelation/solubility behaviour in 2-octanol [1] | Gelation/solubility behaviour in 2-propanol [1] | Gelation/solubility behaviour in Cyclohexane [1] | Gelation/solubility behaviour in Dimethylsulfoxide [1] | Gelation/solubility behaviour in Ethanol [1] | Gelation/solubility behaviour in Hexadecane [1] | Gelation/solubility behaviour in Toluene [1] | Gelation/solubility behaviour in Water [1] | Gelation/solubility behaviour in n-butylacetate [1] | Gelation/solubility behaviour in p-xylene [1] | Gelation/solubility behaviour in methyl benzoic acid [1] | Gelation/solubility behaviour in silicon oil [1] | Cold gelation in 1,2-dichloroethane [4] | Cold gelation in Toluene [4] | Cold gelation in cyclohexane [4] | Cold gelation in methyl laurate [4] | Cold gelation in n-butyl acetate [4] | also measured |
| --- | --- | --- | --- | --- | --- | --- | --- | --- | --- | --- | --- | --- | --- | --- | --- | --- | --- | --- | --- |
| CC(C)=CCCC(C)CCNC(=O)[C@@H](O)[C@@H](O)[C@H](O)[C@@H](O)C(=O)NCCC(C)CCC=C(C)C (stereo partly drawn) [Example 11, dicitronellyl D-glucaramide] | s | s | s | g* | s | s | p | p | c | p | p |  |  |  |  |  |  |  | Gelation in cyclohexane [2]: g*; Gelation in Dioxane [2]: s; Gelation in H2O [2]: c; Gelation in cyclohexane/dioxane 1:1 ([2]; cyclohexane/dioxane 1:1): s; Gelation in dioxane/H2O 1:1 [2]: p; Gelation in dioxane/H2O 1:2 [2]: p; Gelation in dioxane/H2O 2:1 [2]: s; Gelation in dioxane/H2O 3:1 [2]: s |
| CCCCCCCCCCCCNC(=O)[C@@H](O)[C@H](O)[C@H](O)[C@@H](O)C(=O)NCCCCCCCCCCCC [Example 14, didodecyl galactaramide] | ns | ns | ns | ns | ns | ns | ns | ns | ns | ns | ns |  |  |  |  |  |  |  | Solubility in several solvents tested [3]: low solubility |
| CCCCCCCCCCCCNC(=O)[C@@H](O)[C@@H](O)[C@H](O)[C@@H](O)C(=O)NCCCCCCCCCCCC [Example 12, didodecyl D-glucaramide] | p | ns | ns | ns | s | p | ns | ns | ns | ns | ns |  |  | p | p | p | p | p | Gelation in cyclohexane [2]: ns; Gelation in Dioxane [2]: c; Gelation in H2O [2]: ns; Gelation in dioxane/H2O 1:1 [2]: ns; Gelation in dioxane/H2O 1:2 [2]: ns; Gelation in dioxane/H2O 2:1 [2]: c; Gelation in dioxane/H2O 3:1 [2]: c |
| CCCCCCCCNC(=O)[C@@H](O)[C@H](O)[C@H](O)[C@@H](O)C(=O)NCCCCCCCC [Example 10, dioctyl galactaramide] | ns | ns | ns | ns | s | c | ns | ns | ns | ns | ns |  |  |  |  |  |  |  |  |
| CCCCNC(=O)[C@@H](O)[C@H](O)[C@H](O)[C@@H](O)C(=O)NCCCC [Example 3, dibutyl galactaramide] | ns | ns | c | ns | s | c | ns | ns | ns | ns | ns |  |  |  |  |  |  |  |  |
| O=C(NC1CCCCC1)[C@@H](O)[C@@H](O)[C@H](O)[C@@H](O)C(=O)NC1CCCCC1 [Example 5, dicyclohexyl D-glucaramide] | cg | cg | cg |  | cg | cg | ns |  | ns |  |  |  |  | c | c | p | c | c | Maximum gelator concentration in 1,2-dichloroethane ([5]; 1,2-dichloroethane): <5%; Maximum gelator concentration in Toluene ([5]; Toluene): <2.5%; Maximum gelator concentration in cyclohexane ([5]; cyclohexane): <5%; Maximum gelator concentration in methyl laurate ([5]; methyl laurate): <2.5%; Maximum gelator concentration in n-butylacetate ([5]; n-butylacetate): <2.5%; Maximum gelator concentration in silicon oil (Dow Corning 702) ([5]; silicon oil (Dow Corning 702)): <2.5% |

Further lines, with some results ahead:

| Gelation/solubility behaviour in 1,2-dichloroethane [1] | Gelation/solubility behaviour in 2-octanol [1] | Gelation/solubility behaviour in 2-propanol [1] | Gelation/solubility behaviour in Cyclohexane [1] | Gelation/solubility behaviour in Dimethylsulfoxide [1] | Gelation/solubility behaviour in Ethanol [1] | Gelation/solubility behaviour in Hexadecane [1] | Gelation/solubility behaviour in Toluene [1] | Gelation/solubility behaviour in Water [1] | Gelation/solubility behaviour in n-butylacetate [1] | Gelation/solubility behaviour in p-xylene [1] | Gelation/solubility behaviour in methyl benzoic acid [1] | Gelation/solubility behaviour in silicon oil [1] | Cold gelation in 1,2-dichloroethane [4] | Cold gelation in Toluene [4] | Cold gelation in cyclohexane [4] | Cold gelation in methyl laurate [4] | Cold gelation in n-butyl acetate [4] | Compound | also measured |
| --- | --- | --- | --- | --- | --- | --- | --- | --- | --- | --- | --- | --- | --- | --- | --- | --- | --- | --- | --- |
| s | s | s | s | s | s | s | s | p | s | s | s | s | s | s | s | s | s | di-8-pentadecyl D-glucaramide [Example 18] | Gelation/solubility behaviour in 2-methoxyethanol [1]: s; Gelation/solubility behaviour in methyl laurate [1]: s |
| ns | ns | ns | ns | ns | ns | ns | ns | ns | ns | ns | ns | ns |  |  |  |  |  | O=C(NC1CCCCCCCCCCC1)[C@@H](O)[C@H](O)[C@H](O)[C@@H](O)C(=O)NC1CCCCCCCCCCC1 [Example 17, dicyclododecyl galactaramide] | Gelation/solubility behaviour in 2-methoxyethanol [1]: ns; Gelation/solubility behaviour in methyl laurate [1]: ns; Solubility in several solvents tested [3]: low solubility |
| p | c | p | g | p | p | p | p | ns | c | p | p | v |  |  |  |  |  | CCCCCCCCCCCCNC(=O)[C@@H](O)[C@@H](O)[C@H](OC)[C@@H](O)C(=O)NCCCCCCCCCCCC [Example 21, 3-O-methyl-didodecyl D-glucaramide] |  |
